The record followed here is PubChem BioAssay (NCI).

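These data come from cells grown in 96-well plates and exposed to compound for 48 hours at five concentrations. Here, GI50 denotes the concentration required for 50% inhibition of growth. The concentration for full growth arrest is given as TGI.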

Among the test systems are A549 NSCLC; KM12 colon; MALME-3M melanoma; MOLT-4 leukemia; OVCAR-5 ovarian; RPMI-8226 leukemia; SF-539 CNS; SK-MEL-2 melanoma; SR leukemia; UO-31 renal.
Holding throughout (test): inhibition of tumour cell growth, NCI panel, 48 h

Consider `CSC1=Nc2c(c(C)c(-c3ccccc3)n2COC(CO)CO)C2=NC(=O)CN12`, for which the GI50 with A549 NSCLC, in the assay with KM12 colon, with MALME-3M melanoma, in the assay on MOLT-4 leukemia, in the assay on OVCAR-5 ovarian and in the assay with RPMI-8226 leukemia was greater than 100 µM in each case. Besides, the GI50 with SF-539 CNS, in the assay on SK-MEL-2 melanoma, with SR leukemia and in the assay on UO-31 renal was greater than 100 µM throughout. Also, the TGI in the assay on A549 NSCLC, in the assay with KM12 colon, with MALME-3M melanoma, with MOLT-4 leukemia, in the assay with OVCAR-5 ovarian and in the assay on RPMI-8226 leukemia was greater than 100 µM each time. Besides, the TGI in the assay on SF-539 CNS, with SK-MEL-2 melanoma, in the assay with SR leukemia and in the assay with UO-31 renal was greater than 100 µM each time.
Take `COc1ccc(-c2[nH]c3ccccc3c2/C=C(\C#N)S(=O)(=O)c2ccccc2)cc1`: the GI50 in the assay on A549 NSCLC is 0.759 µM; in the assay on KM12 colon, 0.374 µM; in the assay on MALME-3M melanoma, 1.22 µM; in the assay with MOLT-4 leukemia, 0.666 µM; in the assay on OVCAR-5 ovarian it was 1.84 µM; in the assay on RPMI-8226 leukemia, 2.14 µM. The GI50 in the assay with SF-539 CNS is 0.299 µM; in the assay with SK-MEL-2 melanoma, 4.79 µM; in the assay with SR leukemia, 0.344 µM; in the assay on UO-31 renal, 1.88 µM. The TGI is greater than 35.5 µM in the assay with A549 NSCLC; 2.59 µM in the assay with KM12 colon; greater than 82 µM with MALME-3M melanoma; 8.39 µM in the assay on MOLT-4 leukemia; greater than 100 µM in the assay on OVCAR-5 ovarian; greater than 100 µM in the assay with RPMI-8226 leukemia. The TGI with SF-539 CNS was 1.13 µM; with SK-MEL-2 melanoma, greater than 21.8 µM; with SR leukemia it was 4.9 µM.
Regarding `C=C1C(=O)O[C@H]2[C@H]1CC/C(COC(=O)NCc1c[nH]c3ccc(F)cc13)=C\CC[C@@]1(C)O[C@@H]21`, the GI50 was 3.17 µM in the assay with A549 NSCLC; 3.03 µM with KM12 colon; 1.66 µM in the assay with MALME-3M melanoma; 1.42 µM with MOLT-4 leukemia; 1.81 µM with OVCAR-5 ovarian; 0.456 µM in the assay on RPMI-8226 leukemia. For the same compound, the GI50 was 1.63 µM with SF-539 CNS, 1.5 µM in the assay on SK-MEL-2 melanoma, 0.266 µM in the assay on SR leukemia and 1.52 µM in the assay with UO-31 renal. For the same compound, the TGI came to 10.9 µM with A549 NSCLC; 10.3 µM with KM12 colon; 3.32 µM with MALME-3M melanoma; 5.07 µM in the assay on MOLT-4 leukemia; 4.05 µM with OVCAR-5 ovarian; 2.27 µM with RPMI-8226 leukemia. Moreover, the TGI in the assay on SF-539 CNS came to 3.36 µM; in the assay on SK-MEL-2 melanoma, 3.39 µM; in the assay with SR leukemia, 5.85 µM; with UO-31 renal, 2.87 µM.
With `COc1cc(-c2ncn(/C=C\c3nnco3)n2)cc(C(F)(F)F)c1`, the GI50 is 0.109 µM in the assay with A549 NSCLC; 0.705 µM in the assay on KM12 colon; 0.464 µM with MALME-3M melanoma; 0.0411 µM with MOLT-4 leukemia; 1.78 µM with OVCAR-5 ovarian; 0.102 µM in the assay on RPMI-8226 leukemia. In addition, the GI50 with SF-539 CNS was 0.0295 µM; with SK-MEL-2 melanoma it was 0.0617 µM; in the assay with SR leukemia, 0.021 µM; in the assay with UO-31 renal, 0.247 µM. The TGI with A549 NSCLC is greater than 68 µM; with KM12 colon, greater than 39.3 µM; in the assay with MALME-3M melanoma, greater than 100 µM; with OVCAR-5 ovarian, greater than 100 µM; in the assay on RPMI-8226 leukemia, greater than 89.1 µM; with SF-539 CNS, 0.581 µM. Moreover, the results for the TGI with SK-MEL-2 melanoma, with SR leukemia and in the assay with UO-31 renal were 1.15 µM, greater than 100 µM and greater than 100 µM, respectively.
`CCOC(=O)C(CCCNC(=O)OC(C)(C)C)N(Cc1ccc(OC)cc1OC)C(=O)CC(=O)CP(=O)(OCC)OCC` (stereo not drawn): the TGI with A549 NSCLC, in the assay with KM12 colon, in the assay with MALME-3M melanoma, in the assay with MOLT-4 leukemia, in the assay on OVCAR-5 ovarian and with RPMI-8226 leukemia was greater than 100 µM throughout. The TGI in the assay on SF-539 CNS, in the assay with SK-MEL-2 melanoma, in the assay with SR leukemia and in the assay with UO-31 renal was greater than 100 µM throughout.
Turning to `N#Cc1cc2c(cc1Cl)Sc1nnc(Nc3cccc4ccccc34)n1S2(=O)=O`, the GI50 was 37 µM with A549 NSCLC; 2.99 µM in the assay with KM12 colon; 2.03 µM in the assay on MALME-3M melanoma; 3.84 µM with MOLT-4 leukemia; 15.1 µM in the assay with OVCAR-5 ovarian; 2.66 µM in the assay with RPMI-8226 leukemia. The GI50 in the assay with SF-539 CNS is 2.4 µM; in the assay on SK-MEL-2 melanoma, 17.3 µM; in the assay with SR leukemia, 2.21 µM; in the assay with UO-31 renal it was 7.41 µM. The TGI was greater than 100 µM with A549 NSCLC; 10.1 µM in the assay on KM12 colon; 5.75 µM with MALME-3M melanoma; greater than 100 µM in the assay on MOLT-4 leukemia; 28.4 µM with OVCAR-5 ovarian; 7.77 µM in the assay with RPMI-8226 leukemia. Further, the TGI was 5.2 µM in the assay on SF-539 CNS, greater than 100 µM in the assay on SK-MEL-2 melanoma, 7.82 µM with SR leukemia and 20.5 µM in the assay on UO-31 renal.
Take `c1ccc(CN2COc3c(ccc4c5c(ccc34)CN(Cc3ccccc3)CO5)C2)cc1`: the TGI with A549 NSCLC, with KM12 colon, in the assay on MALME-3M melanoma, in the assay with MOLT-4 leukemia, in the assay with OVCAR-5 ovarian and in the assay with RPMI-8226 leukemia was greater than 100 µM each time. Besides, the TGI in the assay with SF-539 CNS, in the assay on SK-MEL-2 melanoma, in the assay with SR leukemia and in the assay on UO-31 renal was greater than 100 µM each time.
Consider `NC(=O)CC(N)c1nn[nH]n1` (stereo not drawn), for which the TGI with A549 NSCLC, in the assay with KM12 colon, in the assay on MALME-3M melanoma, with MOLT-4 leukemia, in the assay with OVCAR-5 ovarian and with RPMI-8226 leukemia was greater than 100 µM each time. In addition, the TGI in the assay on SF-539 CNS, in the assay on SK-MEL-2 melanoma, in the assay with SR leukemia and with UO-31 renal was greater than 100 µM throughout.
Consider `COc1ccc(/C=N\Nc2nc(SCC(C)C)nc(-c3ccc(OC)cc3)c2C#N)cc1`, for which the GI50 in the assay with A549 NSCLC was 0.524 µM; in the assay with KM12 colon, 10.6 µM; in the assay on MALME-3M melanoma, 10.2 µM; in the assay with MOLT-4 leukemia, 12.9 µM; in the assay with OVCAR-5 ovarian, 20.4 µM; in the assay with RPMI-8226 leukemia, 5.48 µM. Besides, the GI50 with SF-539 CNS was 6.28 µM; in the assay on SK-MEL-2 melanoma it was 17.2 µM; in the assay with SR leukemia it was 8.69 µM; with UO-31 renal, 1.5 µM. Besides, the TGI was 16.2 µM in the assay on A549 NSCLC; greater than 100 µM with KM12 colon; 47.9 µM in the assay with MALME-3M melanoma; greater than 100 µM with MOLT-4 leukemia; greater than 100 µM in the assay on OVCAR-5 ovarian; greater than 100 µM in the assay with RPMI-8226 leukemia. Further, the TGI in the assay with SF-539 CNS came out at 20.1 µM; in the assay with SK-MEL-2 melanoma it was 39.7 µM; with SR leukemia, 96 µM; with UO-31 renal, 3.73 µM.
